ChEMBL document CHEMBL1671819, “Interactions of monoamine oxidases with the antiepileptic drug zonisamide: specificity of inhibition and structure of the human monoamine oxidase B complex” (J Med Chem, 2011)

How the values were obtained:
[1] = biological target: T1, Amine oxidase [flavin-containing] (Danio rerio, UniProt Q6NSN2); assay: Competitive inhibition of zebrafish MAO by spectrophotometry
T1 sequence (Q6NSN2 whole entry): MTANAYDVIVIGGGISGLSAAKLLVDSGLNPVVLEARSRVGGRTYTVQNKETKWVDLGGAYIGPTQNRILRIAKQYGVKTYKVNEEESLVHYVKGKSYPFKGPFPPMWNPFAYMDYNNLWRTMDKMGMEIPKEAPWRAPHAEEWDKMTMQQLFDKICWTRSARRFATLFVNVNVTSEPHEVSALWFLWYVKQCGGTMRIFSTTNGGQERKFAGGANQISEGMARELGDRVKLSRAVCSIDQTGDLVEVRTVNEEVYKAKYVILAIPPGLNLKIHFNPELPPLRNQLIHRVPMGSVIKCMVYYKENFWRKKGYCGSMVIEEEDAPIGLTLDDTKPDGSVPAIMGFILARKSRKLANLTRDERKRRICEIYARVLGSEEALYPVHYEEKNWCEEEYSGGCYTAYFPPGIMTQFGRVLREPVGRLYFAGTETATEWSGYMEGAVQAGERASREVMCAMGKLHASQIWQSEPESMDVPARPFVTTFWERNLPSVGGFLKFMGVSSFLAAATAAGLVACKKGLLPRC

Serum = assay: Drug level in parkinson's disease patient serum at 25 mg/day; assay type: ADME, cell-free; details: human, read-out: Drug uptake
[2] = biological target: T2, Amine oxidase [flavin-containing] B (Rattus norvegicus, UniProt P19643); assay: Competitive inhibition of rat MAO B by spectrophotometry
T2 sequence (P19643 whole entry): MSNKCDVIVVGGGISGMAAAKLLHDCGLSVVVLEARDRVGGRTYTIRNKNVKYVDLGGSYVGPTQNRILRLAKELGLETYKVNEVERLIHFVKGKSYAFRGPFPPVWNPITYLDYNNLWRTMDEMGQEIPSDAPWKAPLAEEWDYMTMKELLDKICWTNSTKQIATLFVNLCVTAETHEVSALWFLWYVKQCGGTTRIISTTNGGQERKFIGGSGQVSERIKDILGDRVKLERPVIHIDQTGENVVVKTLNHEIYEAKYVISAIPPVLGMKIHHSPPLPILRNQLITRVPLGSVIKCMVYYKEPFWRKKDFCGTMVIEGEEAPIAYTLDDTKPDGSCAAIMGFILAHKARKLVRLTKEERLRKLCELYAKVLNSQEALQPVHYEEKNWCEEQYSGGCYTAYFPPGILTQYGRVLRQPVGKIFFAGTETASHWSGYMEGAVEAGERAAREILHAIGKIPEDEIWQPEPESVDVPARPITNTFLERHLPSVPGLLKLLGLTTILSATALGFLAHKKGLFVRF

[3] = biological target: T3, Amine oxidase [flavin-containing] A (Homo sapiens, UniProt P21397); assay: Competitive inhibition of human MAOA by spectrophotometry
T3 sequence (P21397 whole entry): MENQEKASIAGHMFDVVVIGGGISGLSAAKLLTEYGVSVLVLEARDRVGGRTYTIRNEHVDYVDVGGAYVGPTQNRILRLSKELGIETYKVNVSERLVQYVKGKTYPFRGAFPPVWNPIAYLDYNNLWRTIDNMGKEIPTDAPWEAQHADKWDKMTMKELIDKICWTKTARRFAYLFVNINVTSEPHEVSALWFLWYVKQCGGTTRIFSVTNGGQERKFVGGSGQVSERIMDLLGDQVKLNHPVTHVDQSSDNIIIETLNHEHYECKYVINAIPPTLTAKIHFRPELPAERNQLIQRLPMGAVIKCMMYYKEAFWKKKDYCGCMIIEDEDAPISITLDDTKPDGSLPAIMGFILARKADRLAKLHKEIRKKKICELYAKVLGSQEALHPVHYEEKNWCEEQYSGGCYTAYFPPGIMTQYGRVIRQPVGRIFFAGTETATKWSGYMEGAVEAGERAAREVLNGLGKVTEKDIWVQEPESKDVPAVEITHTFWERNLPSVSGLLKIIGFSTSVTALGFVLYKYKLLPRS

[4] = biological target: T4, Amine oxidase [flavin-containing] B (Homo sapiens, UniProt P27338); assay: Competitive inhibition of human MAO B by spectrophotometry
T4 sequence (P27338 whole entry): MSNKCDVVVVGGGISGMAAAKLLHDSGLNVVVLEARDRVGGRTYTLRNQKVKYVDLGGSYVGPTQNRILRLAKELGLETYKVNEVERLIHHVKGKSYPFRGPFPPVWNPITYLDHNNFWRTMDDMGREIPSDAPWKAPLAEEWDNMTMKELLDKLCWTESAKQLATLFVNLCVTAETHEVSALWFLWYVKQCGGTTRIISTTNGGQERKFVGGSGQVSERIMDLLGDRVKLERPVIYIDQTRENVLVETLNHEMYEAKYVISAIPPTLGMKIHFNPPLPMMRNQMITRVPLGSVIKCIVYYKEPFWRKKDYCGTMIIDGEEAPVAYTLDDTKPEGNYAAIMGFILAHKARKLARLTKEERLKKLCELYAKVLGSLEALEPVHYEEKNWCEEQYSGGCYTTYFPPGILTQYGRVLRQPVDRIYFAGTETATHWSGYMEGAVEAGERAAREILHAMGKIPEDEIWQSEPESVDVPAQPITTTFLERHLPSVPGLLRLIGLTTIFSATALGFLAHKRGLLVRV

[5] = biological target: T5, Amine oxidase [flavin-containing] A (Rattus norvegicus, UniProt P21396); assay: Competitive inhibition of rat MAOA by spectrophotometry
T5 sequence (P21396 whole entry): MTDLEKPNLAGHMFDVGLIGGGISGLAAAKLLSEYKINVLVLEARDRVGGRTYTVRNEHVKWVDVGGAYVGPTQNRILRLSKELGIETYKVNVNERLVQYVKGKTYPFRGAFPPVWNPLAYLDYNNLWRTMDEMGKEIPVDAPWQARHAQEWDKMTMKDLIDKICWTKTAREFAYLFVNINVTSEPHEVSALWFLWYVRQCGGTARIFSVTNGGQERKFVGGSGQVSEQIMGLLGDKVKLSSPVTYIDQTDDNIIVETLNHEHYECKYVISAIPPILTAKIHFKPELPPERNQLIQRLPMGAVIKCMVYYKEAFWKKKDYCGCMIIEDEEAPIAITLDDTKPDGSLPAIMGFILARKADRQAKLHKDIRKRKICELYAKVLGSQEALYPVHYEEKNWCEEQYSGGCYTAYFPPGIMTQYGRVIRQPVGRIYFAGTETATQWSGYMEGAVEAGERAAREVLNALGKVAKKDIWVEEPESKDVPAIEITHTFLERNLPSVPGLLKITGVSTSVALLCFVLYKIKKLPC

NS(=O)(=O)Cc1noc2ccccc12 [ZONISAMIDE]
Ki [1]: 30.8 µM
concentration (Serum): 600 nM
Ki [2]: 2.9 µM
inhibition (INH) [3]: Not Active
Ki [4]: 3.1 µM
inhibition (INH) [5]: Not Active
